{"source": "paper PMC10006169", "about": "“A phase I trial of LXS196, a protein kinase C (PKC) inhibitor, for metastatic uveal melanoma” (British Journal of Cancer, 2023)", "tested_on": "patients with MUM", "test": "Adverse events regardless of study drug relationship", "assay_type": "in vivo, human", "method": "Routine safety assessments, including laboratory assessments, physical examinations, vital signs and electrocardiograms (ECGs), were conducted at regular intervals throughout the study and more frequently as needed following patient assessment by the treating physician. Adverse events (AEs) were assessed continuously according to the National Cancer Institute Common Terminology Criteria for Adverse Events (NCI-CTCAE) v4.03."}
{"compound": "CC1(N)CCN(c2cccnc2NC(=O)c2nc(-c3ncccc3C(F)(F)F)cnc2N)CC1", "note": "[LXS196]", "values": [{"measurement": "ALT increased, all grades", "setting": "500 mg QD", "result": "3 (27.3) n (%)"}, {"measurement": "ALT increased, grade ≥3", "setting": "500 mg QD", "result": "1 (9.1) n (%)"}, {"measurement": "AST increased, all grades", "setting": "500 mg QD", "result": "4 (36.4) n (%)"}, {"measurement": "AST increased, grade ≥3", "setting": "500 mg QD", "result": "1 (9.1) n (%)"}, {"measurement": "Abdominal pain upper, all grades", "setting": "500 mg QD", "result": "2 (18.2) n (%)"}, {"measurement": "Abdominal pain upper, grade ≥3", "setting": "500 mg QD", "result": "0 n (%)"}, {"measurement": "Asthenia, all grades", "setting": "500 mg QD", "result": "4 (36.4) n (%)"}, {"measurement": "Asthenia, grade ≥3", "setting": "500 mg QD", "result": "0 n (%)"}, {"measurement": "Blood creatinine increased, all grades", "setting": "500 mg QD", "result": "0 n (%)"}, {"measurement": "Blood creatinine increased, grade ≥3", "setting": "500 mg QD", "result": "0 n (%)"}, {"measurement": "Constipation, all grades", "setting": "500 mg QD", "result": "2 (18.2) n (%)"}, {"measurement": "Constipation, grade ≥3", "setting": "500 mg QD", "result": "0 n (%)"}, {"measurement": "Decreased appetite, all grades", "setting": "500 mg QD", "result": "4 (36.4) n (%)"}, {"measurement": "Decreased appetite, grade ≥3", "setting": "500 mg QD", "result": "0 n (%)"}, {"measurement": "Dermatitis acneiform, all grades", "setting": "500 mg QD", "result": "1 (9.1) n (%)"}, {"measurement": "Dermatitis acneiform, grade ≥3", "setting": "500 mg QD", "result": "0 n (%)"}, {"measurement": "Diarrhoea, all grades", "setting": "500 mg QD", "result": "5 (45.5) n (%)"}, {"measurement": "Diarrhoea, grade ≥3", "setting": "500 mg QD", "result": "0 n (%)"}, {"measurement": "Dry skin, all grades", "setting": "500 mg QD", "result": "1 (9.1) n (%)"}, {"measurement": "Dry skin, grade ≥3", "setting": "500 mg QD", "result": "0 n (%)"}, {"measurement": "Fatigue, all grades", "setting": "500 mg QD", "result": "1 (9.1) n (%)"}, {"measurement": "Fatigue, grade ≥3", "setting": "500 mg QD", "result": "0 n (%)"}, {"measurement": "Hypotension, all grades", "setting": "500 mg QD", "result": "4 (36.4) n (%)"}, {"measurement": "Hypotension, grade ≥3", "setting": "500 mg QD", "result": "3 (27.3) n (%)"}, {"measurement": "Nasopharyngitis, all grades", "setting": "500 mg QD", "result": "0 n (%)"}, {"measurement": "Nasopharyngitis, grade ≥3", "setting": "500 mg QD", "result": "0 n (%)"}, {"measurement": "Nausea, all grades", "setting": "500 mg QD", "result": "8 (72.7) n (%)"}, {"measurement": "Nausea, grade ≥3", "setting": "500 mg QD", "result": "0 n (%)"}, {"measurement": "Neutropenia, all grades", "setting": "500 mg QD", "result": "2 (18.2) n (%)"}, {"measurement": "Neutropenia, grade ≥3", "setting": "500 mg QD", "result": "1 (9.1) n (%)"}, {"measurement": "Oedema peripheral, all grades", "setting": "500 mg QD", "result": "1 (9.1) n (%)"}, {"measurement": "Oedema peripheral, grade ≥3", "setting": "500 mg QD", "result": "0 n (%)"}, {"measurement": "Patients with ≥1 AE, all grades", "setting": "500 mg QD", "result": "10 (90.9) n (%)"}, {"measurement": "Patients with ≥1 AE, grade ≥3", "setting": "500 mg QD", "result": "4 (36.4) n (%)"}, {"measurement": "Rash, all grades", "setting": "500 mg QD", "result": "0 n (%)"}, {"measurement": "Rash, grade ≥3", "setting": "500 mg QD", "result": "0 n (%)"}, {"measurement": "Vomiting, all grades", "setting": "500 mg QD", "result": "5 (45.5) n (%)"}, {"measurement": "Vomiting, grade ≥3", "setting": "500 mg QD", "result": "0 n (%)"}, {"measurement": "ALT increased, all grades", "setting": "800 mg QD", "result": "0 n (%)"}, {"measurement": "ALT increased, grade ≥3", "setting": "800 mg QD", "result": "0 n (%)"}, {"measurement": "AST increased, all grades", "setting": "800 mg QD", "result": "0 n (%)"}, {"measurement": "AST increased, grade ≥3", "setting": "800 mg QD", "result": "0 n (%)"}, {"measurement": "Abdominal pain upper, all grades", "setting": "800 mg QD", "result": "0 n (%)"}, {"measurement": "Abdominal pain upper, grade ≥3", "setting": "800 mg QD", "result": "0 n (%)"}, {"measurement": "Asthenia, all grades", "setting": "800 mg QD", "result": "0 n (%)"}, {"measurement": "Asthenia, grade ≥3", "setting": "800 mg QD", "result": "0 n (%)"}, {"measurement": "Blood creatinine increased, all grades", "setting": "800 mg QD", "result": "0 n (%)"}, {"measurement": "Blood creatinine increased, grade ≥3", "setting": "800 mg QD", "result": "0 n (%)"}, {"measurement": "Constipation, all grades", "setting": "800 mg QD", "result": "0 n (%)"}, {"measurement": "Constipation, grade ≥3", "setting": "800 mg QD", "result": "0 n (%)"}, {"measurement": "Decreased appetite, all grades", "setting": "800 mg QD", "result": "0 n (%)"}, {"measurement": "Decreased appetite, grade ≥3", "setting": "800 mg QD", "result": "0 n (%)"}, {"measurement": "Dermatitis acneiform, all grades", "setting": "800 mg QD", "result": "0 n (%)"}, {"measurement": "Dermatitis acneiform, grade ≥3", "setting": "800 mg QD", "result": "0 n (%)"}, {"measurement": "Diarrhoea, all grades", "setting": "800 mg QD", "result": "1 (100) n (%)"}, {"measurement": "Diarrhoea, grade ≥3", "setting": "800 mg QD", "result": "0 n (%)"}, {"measurement": "Dry skin, all grades", "setting": "800 mg QD", "result": "0 n (%)"}, {"measurement": "Dry skin, grade ≥3", "setting": "800 mg QD", "result": "0 n (%)"}, {"measurement": "Fatigue, all grades", "setting": "800 mg QD", "result": "0 n (%)"}, {"measurement": "Fatigue, grade ≥3", "setting": "800 mg QD", "result": "0 n (%)"}, {"measurement": "Hypotension, all grades", "setting": "800 mg QD", "result": "1 (100) n (%)"}, {"measurement": "Hypotension, grade ≥3", "setting": "800 mg QD", "result": "1 (100) n (%)"}, {"measurement": "Nasopharyngitis, all grades", "setting": "800 mg QD", "result": "0 n (%)"}, {"measurement": "Nasopharyngitis, grade ≥3", "setting": "800 mg QD", "result": "0 n (%)"}, {"measurement": "Nausea, all grades", "setting": "800 mg QD", "result": "1 (100) n (%)"}, {"measurement": "Nausea, grade ≥3", "setting": "800 mg QD", "result": "0 n (%)"}, {"measurement": "Neutropenia, all grades", "setting": "800 mg QD", "result": "0 n (%)"}, {"measurement": "Neutropenia, grade ≥3", "setting": "800 mg QD", "result": "0 n (%)"}, {"measurement": "Oedema peripheral, all grades", "setting": "800 mg QD", "result": "0 n (%)"}, {"measurement": "Oedema peripheral, grade ≥3", "setting": "800 mg QD", "result": "0 n (%)"}, {"measurement": "Patients with ≥1 AE, all grades", "setting": "800 mg QD", "result": "1 (100) n (%)"}, {"measurement": "Patients with ≥1 AE, grade ≥3", "setting": "800 mg QD", "result": "1 (100) n (%)"}, {"measurement": "Rash, all grades", "setting": "800 mg QD", "result": "0 n (%)"}, {"measurement": "Rash, grade ≥3", "setting": "800 mg QD", "result": "0 n (%)"}, {"measurement": "Vomiting, all grades", "setting": "800 mg QD", "result": "0 n (%)"}, {"measurement": "Vomiting, grade ≥3", "setting": "800 mg QD", "result": "0 n (%)"}, {"measurement": "ALT increased, all grades", "setting": "1000 mg QD", "result": "1 (25.0) n (%)"}, {"measurement": "ALT increased, grade ≥3", "setting": "1000 mg QD", "result": "0 n (%)"}, {"measurement": "AST increased, all grades", "setting": "1000 mg QD", "result": "0 n (%)"}, {"measurement": "AST increased, grade ≥3", "setting": "1000 mg QD", "result": "0 n (%)"}, {"measurement": "Abdominal pain upper, all grades", "setting": "1000 mg QD", "result": "0 n (%)"}, {"measurement": "Abdominal pain upper, grade ≥3", "setting": "1000 mg QD", "result": "0 n (%)"}, {"measurement": "Asthenia, all grades", "setting": "1000 mg QD", "result": "0 n (%)"}, {"measurement": "Asthenia, grade ≥3", "setting": "1000 mg QD", "result": "0 n (%)"}, {"measurement": "Blood creatinine increased, all grades", "setting": "1000 mg QD", "result": "0 n (%)"}, {"measurement": "Blood creatinine increased, grade ≥3", "setting": "1000 mg QD", "result": "0 n (%)"}, {"measurement": "Constipation, all grades", "setting": "1000 mg QD", "result": "0 n (%)"}, {"measurement": "Constipation, grade ≥3", "setting": "1000 mg QD", "result": "0 n (%)"}, {"measurement": "Decreased appetite, all grades", "setting": "1000 mg QD", "result": "0 n (%)"}, {"measurement": "Decreased appetite, grade ≥3", "setting": "1000 mg QD", "result": "0 n (%)"}, {"measurement": "Dermatitis acneiform, all grades", "setting": "1000 mg QD", "result": "0 n (%)"}, {"measurement": "Dermatitis acneiform, grade ≥3", "setting": "1000 mg QD", "result": "0 n (%)"}, {"measurement": "Diarrhoea, all grades", "setting": "1000 mg QD", "result": "4 (100) n (%)"}, {"measurement": "Diarrhoea, grade ≥3", "setting": "1000 mg QD", "result": "0 n (%)"}, {"measurement": "Dry skin, all grades", "setting": "1000 mg QD", "result": "1 (25.0) n (%)"}, {"measurement": "Dry skin, grade ≥3", "setting": "1000 mg QD", "result": "0 n (%)"}, {"measurement": "Fatigue, all grades", "setting": "1000 mg QD", "result": "3 (75.0) n (%)"}, {"measurement": "Fatigue, grade ≥3", "setting": "1000 mg QD", "result": "0 n (%)"}, {"measurement": "Hypotension, all grades", "setting": "1000 mg QD", "result": "2 (50.0) n (%)"}, {"measurement": "Hypotension, grade ≥3", "setting": "1000 mg QD", "result": "1 (25.0) n (%)"}, {"measurement": "Nasopharyngitis, all grades", "setting": "1000 mg QD", "result": "1 (25.0) n (%)"}, {"measurement": "Nasopharyngitis, grade ≥3", "setting": "1000 mg QD", "result": "0 n (%)"}, {"measurement": "Nausea, all grades", "setting": "1000 mg QD", "result": "4 (100) n (%)"}, {"measurement": "Nausea, grade ≥3", "setting": "1000 mg QD", "result": "0 n (%)"}, {"measurement": "Neutropenia, all grades", "setting": "1000 mg QD", "result": "0 n (%)"}, {"measurement": "Neutropenia, grade ≥3", "setting": "1000 mg QD", "result": "0 n (%)"}, {"measurement": "Oedema peripheral, all grades", "setting": "1000 mg QD", "result": "0 n (%)"}, {"measurement": "Oedema peripheral, grade ≥3", "setting": "1000 mg QD", "result": "0 n (%)"}, {"measurement": "Patients with ≥1 AE, all grades", "setting": "1000 mg QD", "result": "4 (100) n (%)"}, {"measurement": "Patients with ≥1 AE, grade ≥3", "setting": "1000 mg QD", "result": "2 (50.0) n (%)"}, {"measurement": "Rash, all grades", "setting": "1000 mg QD", "result": "0 n (%)"}, {"measurement": "Rash, grade ≥3", "setting": "1000 mg QD", "result": "0 n (%)"}, {"measurement": "Vomiting, all grades", "setting": "1000 mg QD", "result": "0 n (%)"}, {"measurement": "Vomiting, grade ≥3", "setting": "1000 mg QD", "result": "0 n (%)"}]}
